Assay results reported in the METLIN SMRT retention time set (Domingo-Almenara et al. 2019).

assay: gradient 5% acetonitrile 3 min, to 50% in 2 min, to 85% in 15 min, held 3 min, 100 µL/min; details: column: Zorbax Extend-C18 2.1 x 50 mm; eluents: water / acetonitrile, 0.1% formic acid
Summary of the method: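 Retention times come from adduct peaks that were picked computationally and then checked by hand. The standards, pure and pooled in mixtures of ~100 molecules, were run on a Zorbax Extend-C18 column (2.1 × 50 mm, 1.8 μm) at 100 μL/min with water and acetonitrile, each with 0.1% formic acid. Detection was by quadrupole time-of-flight mass spectrometry in positive and negative ionization mode, with a dead volume of 40 μL and a dwell volume of 900 μL.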

Compound | RP-LC retention time
COc1ccc2nc(-c3ccc(C)c(NS(=O)(=O)c4cc(C)ccc4OC)c3)cn2n1 | 812 s
CCc1noc2nc(C)n(CC(=O)NC3CCCc4ccccc43)c(=O)c12 (stereo not given) | 867 s
Cc1ccc(-c2nc3cnccn3c2Nc2cccc(C(F)(F)F)c2)cc1 | 972 s
O=C(CN1CCCC1=O)NCc1ccc(F)cc1Cl | 656 s
COc1ccc(Cl)cc1NC(=O)COc1nc(C)nc2ccccc12 | 840 s
O=C(c1nnc(-c2ccc(S(=O)(=O)N3CCCCC3)cc2)o1)N1CCN(C2CCCCC2)CC1 | 700 s
COc1cccc(N2CCN(c3ccnc(SCC(=O)NCc4ccccc4Cl)n3)CC2)c1 | 788 s
CSc1ncc(Cl)c(C(=O)NCc2ccco2)n1 | 753 s
COc1ccc(C(CC(=O)NCCC(C)C)N2Cc3ccccc3C2=O)cc1OC (stereo not given) | 722 s
O=C(c1cccc2c1CCN2C(=O)C1CC1)N1CCOCC1 | 645 s
CCn1c(=O)c(C)nc2cc(-c3noc(-c4ccccc4C)n3)ccc21 | 1190 s
Cn1c(=O)c2c(-c3ccncc3)c(C#N)c(N)nc2n(C)c1=O | 554 s
Cc1cc2nn(CC(=O)Nc3ccccc3F)c(=O)n2c(Nc2ccc(F)cc2)n1 | 967 s
CCNc1cc(N2CCC(CCC(=O)NCc3ccc(Cl)cc3)CC2)ncn1 | 585 s
COC(=O)c1cnc2nc(C)ccc2c1Nc1cc(OC)ccc1OC | 667 s
COC(=O)c1c(C)c(C(=O)C(C)N(Cc2ccc(F)cc2)C(=O)C2CC2)c(C)n1C (stereo not given) | 917 s
O=C1C(=O)N(Cc2ccc(C(=O)N3CCCCCC3)cc2)CCN1Cc1ccc(F)cc1 | 728 s
O=C(COc1ccc(F)cc1)N1CC(n2cc(COCC3CC3)nn2)C1 | 736 s
O=C(CN1C(=O)CCC1=O)NCC1(c2ccc(F)cc2)CC1 | 665 s
O=C(c1ccsc1)N1CCn2c(nnc2-c2ccccc2)C1 | 611 s
Cc1ccc(N2CCN(C(=O)C3CCCN(c4ncnc5c4nc4n5CCCCC4)C3)CC2)c(C)c1 (stereo not given) | 1050 s
Cc1ccc2[nH]c(=O)nc(-c3ccccc3)c2c1 | 648 s
Cc1nnc(-c2cc(NS(C)(=O)=O)c(C)s2)o1 | 697 s

Compound | RP-LC retention time
COc1cc(-c2nc(C3CC(=O)N(c4ccc(Cl)cc4)C3)no2)cc(OC)c1OC (stereo not given) | 993 s
O=C1[C@H]2CN(Cc3cc(Br)ccc3F)C[C@H]2C(=O)N1CCc1ccccc1 | 1030 s
CCC(=O)NCCc1csc(C2CCCN(C(=O)C3CCC3)C2)n1 (stereo not given) | 676 s
CCc1nc(OCC(=O)Nc2ccc(Cl)cc2C(F)(F)F)c2ccccc2n1 | 942 s
Cc1nn(C(C)C(=O)NCCN(C)C)c(=O)c2nn(-c3ccccc3)c(C)c12 (stereo not given) | 601 s
CCn1cc(C(=O)Nc2cccc(OC)c2)c2cccnc21 | 809 s
COc1ccc(-c2nc(C)cc(C)c2CNS(=O)(=O)c2ccc(C)cc2)cc1 | 670 s
Cc1ccc(CNc2nc(-c3ccc(Cl)cc3)nc3ccccc23)o1 | 865 s
COc1ccc(NC(=O)CSc2cc(N3CCN(c4ccc(OC)cc4)CC3)ncn2)cc1 | 859 s
CC(=O)N1CCCc2cc(S(=O)(=O)CCC(=O)Nc3ccc(C)c(C)c3)ccc21 | 784 s
COc1cc(NC(=O)Nc2nccn(-c3ccc(C)c(C)c3)c2=O)cc(OC)c1 | 955 s
CC(C)NC(=O)c1cccn(-c2ccc(NC(=O)C(C)(C)C)cc2)c1=O | 749 s
Cn1c(Nc2ccc(C(F)(F)F)cc2)nc2cc(Oc3ccnc(-c4ncc(C(F)(F)F)[nH]4)c3)ccc21 | 994 s
Cc1c(N2CCN(C(=O)C3CCCCC3)CC2)c(=O)n(C)c(=O)n1-c1ccccc1 | 881 s
CCC1CN2C=Nc3oc(C)c(C(=O)Nc4ccc(C)c(F)c4)c3C2=N1 (stereo not given) | 689 s
Cc1ccc(N2CCC(NC(=O)Nc3ccc(F)cc3F)C2=O)cc1C (stereo not given) | 903 s
O=C(CN1CC=C(c2cnn(-c3ccccc3)c2)CC1)NC1CCCCCC1 | 702 s
Cc1ccc(C2Cn3nnc(C(=O)N4CCN(C(=O)c5ccoc5)CC4)c3CO2)cc1 (stereo not given) | 815 s
CCc1nnc([C@@H]2CC(F)(F)CN2C(=O)c2noc(C)c2COC)o1 | 752 s
CC(C(=O)NCCCN1CCCC1=O)C1CCN(C(=O)c2cc3cc(Cl)ccc3[nH]2)CC1 (stereo not given) | 698 s
N#Cc1nc(-c2ccc(COc3ccc(Cl)cc3)o2)oc1N1CCC(C(N)=O)CC1 | 806 s
CCOC(=O)c1noc2nc(C)nc(Nc3ccc(F)cc3)c12 | 962 s
CNC(=O)[C@@H]1CCCN1C(=O)c1ccccc1 | 587 s

Compound | RP-LC retention time
CCNc1cc(N2CCC(CCC(=O)Nc3ccc(OC)c(OC)c3)CC2)ncn1 | 614 s
COc1ccc(-n2cc(C(=O)Nc3ccc(SC)cc3)nn2)cc1 | 966 s
Clc1ccc(CCCOCCCN2CCCCC2)cc1 | 744 s
CC1CCCN(CCNC(=O)C2CCc3nc(N4CCOCC4)ncc3C2)C1 (stereo not given) | 557 s
CCc1cccc(Nc2c(-c3nc(C)no3)cnc3nc(C)ccc23)c1 | 835 s
Cc1cccc(-c2ncccc2CNS(=O)(=O)c2ccccc2)c1 | 677 s
COc1ccc(-c2noc(-c3nn(-c4ccc(F)c(F)c4)ccc3=O)n2)cc1 | 914 s
CCCn1cc(CCNC(=O)c2cc(Cl)ccc2F)c2cccnc21 | 852 s
O=S(=O)(NC1CCCCCC1)c1ccc(-c2cc(C(F)(F)F)on2)o1 | 1170 s
Cc1nc2cccnc2n1C1CCN(C(=O)Nc2ccc3c(c2)OCCO3)C1 (stereo not given) | 573 s
CCOC(=O)c1ccc(NS(=O)(=O)c2ccc(-c3c(C)noc3C)cc2)cc1 | 941 s
COc1ccc(Cn2nc3c(S(=O)(=O)N4CCCCCC4)cccn3c2=O)cc1F | 941 s
COc1cc(-c2nc3ncccn3c2Nc2c(C)cccc2C)ccc1O | 683 s
CNC(=O)N1CCCC(c2cccc(C(=O)N3CCN(c4ccc(Cl)cc4)CC3)c2)C1 (stereo not given) | 864 s
CCNc1cc(N2CCCC(CCC(=O)NCc3ccccc3OC)C2)ncn1 (stereo not given) | 656 s
O=C(NCC(c1cccnc1)N1CCN(Cc2ccccc2)CC1)Nc1ccccc1Cl (stereo not given) | 554 s
CC1=C(c2ccc(C)c(C)c2)S(=O)(=O)N=C1N1CCCN(C(=O)c2cccs2)CC1 | 874 s
COc1ccc(NC(=O)C2CCCN2S(=O)(=O)c2ccc(F)cc2)cc1 (stereo not given) | 844 s
Cc1cccc(N2CCN(C(=O)CN3C(=O)CN(C)C(=O)c4ccccc43)CC2)c1C | 812 s
Cc1oc(-c2ccc(Cl)cc2)nc1CN1CCCC(C(=O)NC2CCCCC2C)C1 (stereo not given) | 835 s
CN(C)c1cccc(C(=O)NC2CCN(c3ccccc3)C2=O)c1 (stereo not given) | 667 s
Cc1ccc(-c2nnc(N3CCC(C(=O)N4CCN(CC(C)C)CC4)CC3)o2)cc1 | 639 s
CC(=O)Nc1nc(-c2ccc(F)c(F)c2)cs1 | 766 s

Compound | RP-LC retention time
CCOc1ccc(NC(=O)N2CCc3cn(C)c4cccc(c34)C2)cc1 | 913 s
Cc1ccc(NC(=O)Cn2c(C)nc3onc(C)c3c2=O)c(C)c1 | 800 s
COc1cc(NC(=O)Cn2c(=O)nc(N3CCC(C)CC3)c3ccccc32)cc(OC)c1 | 798 s
CC(=O)Nc1ccc(-c2noc(C3CCN(C(=O)CCC4CCCC4)CC3)n2)cc1 | 924 s
Cc1noc2ncnc(N3CCCC(C(=O)N4CCN(c5ccc(Cl)cc5)CC4)C3)c12 (stereo not given) | 931 s
Cc1c(C(=O)NC2CC2)cc(-c2ccc(F)cc2)n1C | 830 s
Clc1ccccc1N1CCN(Cc2nnc(-c3ccccc3)o2)CC1 | 768 s
Cc1ccc(NC(=O)CSc2nc(=O)n(CCN(C)C)c3c2CCC3)cc1 | 636 s
COC(=O)c1c(NCc2ccc(C(F)(F)F)cc2)c2cc(F)ccc2[nH]c1=O | 840 s
Cc1cc(C(=O)N2CCCCC2)c2c(=O)n(CC(=O)Nc3cc(F)ccc3F)c(=O)n(C)c2n1 | 837 s
Cc1ccc(-c2csc(NC(=O)c3ccccc3Br)n2)c(C)c1 | 1150 s
Cc1ccccc1CNC(=O)Cc1csc2nc(-c3ccccc3)cn12 | 792 s
COCCNC(=O)NCc1ccc2c(c1)N(C(=O)c1ccccc1)CC2 | 696 s
CCN(CC)CCNCc1ccc(-c2ccccc2F)o1 | 562 s
COC(=O)c1ccc(NC(=O)Cn2nc3nc(N4CCCC(C)C4)ccn3c2=O)cc1 (stereo not given) | 774 s
COC(=O)c1ccc(NC(=O)C(=O)NC(C)Cc2cccs2)cc1 (stereo not given) | 900 s
Cc1nc(-c2ccc(OCC(C)C)c(C#N)c2)sc1C(=O)O | 1040 s
O=S(=O)(c1ccc2nncn2c1)N(Cc1cc(F)cc(F)c1)c1cc(F)cc(F)c1 | 910 s
CCCn1cc(CCNS(=O)(=O)c2cc(C)c(C)cc2C)c2cccnc21 | 978 s
COC(=O)c1c(NC(=O)c2cc3ccccc3c(=O)o2)sc2c1CCCC2 | 748 s
Cc1ccc(C)c(NC(=O)Cn2nc3n(c2=O)CCCCC3)c1 | 722 s
